The text below walks through data of US20250268894A1, “MACROCYCLE COMPOUNDS FOR THE TREATMENT OF CANCER” (Hoffmann-La Roche Inc., priority 2022, published 2025).

The subject of assay [1] is NCI-H358 cells (KRAS G12C). As to the kind of experiment: Cell viability assay (Cell Counting Kit-8), KRAS G12C. Format: cell-based. The settings on record: Homo sapiens, NCI-H358, 72 hrs. Put shortly:
(§1)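 Cells seeded overnight at 5,000/well (NCI-H358) or 2,000/well (AGS, SW620), then exposed to compound for 72 hrs at 0.5% DMSO final. CCK-8 read as OD450 minus OD650 after 2 hrs; IC50 from 4-parameter sigmoidal fit.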
(In general: Formazan colour is commonly taken as a measure of viable cells.)

The next assay deals with AGS cells (KRAS G12D). As to the kind of experiment: Cell viability assay (Cell Counting Kit-8), KRAS G12D. Type of assay: cell-based. The settings on record: Homo sapiens, 72 hrs. Put shortly:
as §1

The test system of the next assay is SW620 cells (KRAS G12V). Briefly: Cell viability assay (Cell Counting Kit-8), KRAS G12V. Format: cell-based. As to conditions: Homo sapiens, SW-620, SW620, 72 hrs. In a few lines: as §1
For a further assay, the target named is KRAS G12C-BRAF complex (Homo sapiens (Human), UniProt P01116+P62937, G12C). As to the kind of experiment: KRAS-BRAF with CYPA (500 nM) interaction assay (TR-FRET), G12C. Type of assay: biochemical. As to the method: (§2) Kras-BRAF with CYPA (500 nM) Interaction Assay In this example, TR-FRET was also used to measure the compound or compound-CYPA dependent disruption of the KRAS G12C-BRAF complex. This protocol was also used to measure disruption of KRAS G12D or KRAS G12V binding to BRAF by a compound of the invention, respectively. […] Compound was present in plate wells as a 16-point 3-fold dilution series starting at a final concentration of 10 μM and incubated for 3 hours. […] TR-FRET signal was read on a […] microplate reader (Ex320 nm, Em 665/615 nm). Compounds that facilitate disruption of the KRAS-BRAF complex were identified as those eliciting a decrease in the TR-FRET ratio relative to DMSO control wells.
In general terms: TR-FRET usually uses a lanthanide donor and a delayed reading to cut background.

In another assay the target is KRAS G12V-BRAF complex (Homo sapiens (Human), UniProt P01116+P62937, G12V). As to the kind of experiment: KRAS-BRAF with CYPA (500 nM) interaction assay (TR-FRET), G12V. Type of assay: biochemical. As to the method: as §2
Assay [2] deals with phosphorylation of ERK, KRAS G12D in AGS cells. As to the kind of experiment: pERK inhibition assay, KRAS G12D in AGS cells. The settings on record: Homo sapiens, 4 hours. Format: cell-based, human. In a few lines: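 NCI-H358 (G12C), AGS (G12D) and SW620 (G12V) cells in RPMI-1640/10% FBS, plated overnight, then treated 4 h with compound (0.5% DMSO final). Fixed, methanol-permeabilized; phospho-ERK detected by in-cell ELISA (anti-pERK, HRP secondary, TMB, OD450). IC50 from 4-parameter sigmoidal fit.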

Assay [3] deals with Miapaca-2 KRAS G12C + V8A cells. As to the kind of experiment: Stable KRAS mutant cell line viability assay (CellTiter-Glo), G12C + V8A. The settings on record: Homo sapiens, MIA PaCa-2, 72 h, Miapaca-2 mutant cells, 3 d. Type of assay: cell-based. From the text: (§3) The aim of the study was to determine the potency and efficacy of compounds for cell proliferation using CellTiter-Glo® (CTG) Luminescent Cell Viability Assay (Promega Corp., Madison, WI). We cloned […] KRAS^G12C variant sequences with secondary mutations (V8A, V9Y, S17E, T58I, A59T, S65W, R68S, D69P, M72I, D92R, H95N, Y96D, Q99F, Q99W, Y96H, and F156L) into the Miapaca-2. Totally 14 stable Miapaca-2 mutant cell lines were established through lentivirus infection. For the cell viability assay, cells were dosed with compounds in a 9-point dose-response using a 4 fold dilution series at a top dose of 10 μM. KRAS mutant cells were maintained in DMEM+10% FBS+2.5% HI Horse serum+1% PS+1 μg/mL Puromycin and seeded into 96-well plates at 800-1,500 cells per well 24 h before compound addition and then incubated with compound for 3 d before assaying viability (CellTiter-Glo, Promega). Assays were performed in biological duplicates. Nonlinear regression curves were fitted using Xfit. IC50 (absolute IC50) is the dose at which the estimated viability is 50% relative to untreated wells.
(In general: Cellular ATP, detected with luciferase, serves as a proxy for viable cell number.)

The subject of assay [4] is Miapaca-2 KRAS G12C + S17E cells. Briefly: Stable KRAS mutant cell line viability assay (CellTiter-Glo), G12C + S17E. Type of assay: cell-based. The settings on record: Homo sapiens, MIA PaCa-2, 72 h, Miapaca-2 mutant cells, 3 d.
From the text: as §3

Assay [5] has as its system Miapaca-2 KRAS G12C + D60P cells. Briefly: Stable KRAS mutant cell line viability assay (CellTiter-Glo), G12C + D60P. Format: cell-based. As to conditions: Homo sapiens, MIA PaCa-2, 72 h, Miapaca-2 mutant cells, 3 d.
From the text: as §3

Assay [6] concerns Miapaca-2 KRAS G12C + R68S cells. Briefly: Stable KRAS mutant cell line viability assay (CellTiter-Glo), G12C + R68S. Format: cell-based. The settings on record: Homo sapiens, MIA PaCa-2, 72 h, Miapaca-2 mutant cells, 3 d.
From the text: as §3

For assay [7], the system named is Miapaca-2 KRAS G12C + H95N cells. As to the kind of experiment: Stable KRAS mutant cell line viability assay (CellTiter-Glo), G12C + H95N. Format: cell-based. As to conditions: Homo sapiens, MIA PaCa-2, 72 h, Miapaca-2 mutant cells, 3 d.
From the text: as §3

KRAS G12V-BRAF complex, sequence (P01116-2 other isoform, or with tags, fused parts or gaps G12V): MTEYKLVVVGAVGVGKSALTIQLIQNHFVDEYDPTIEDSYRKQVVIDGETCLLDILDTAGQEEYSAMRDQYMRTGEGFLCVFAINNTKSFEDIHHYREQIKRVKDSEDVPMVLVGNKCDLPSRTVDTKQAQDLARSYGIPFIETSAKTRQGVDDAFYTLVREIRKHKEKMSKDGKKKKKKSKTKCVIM
KRAS G12V-BRAF complex, sequence (P62937 whole entry): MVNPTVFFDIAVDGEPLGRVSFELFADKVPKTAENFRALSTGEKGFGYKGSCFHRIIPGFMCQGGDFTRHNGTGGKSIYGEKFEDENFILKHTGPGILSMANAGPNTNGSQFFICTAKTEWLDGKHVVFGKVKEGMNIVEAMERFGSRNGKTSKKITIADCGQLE
KRAS G12C-BRAF complex, sequence (P01116-2 other isoform, or with tags, fused parts or gaps G12C): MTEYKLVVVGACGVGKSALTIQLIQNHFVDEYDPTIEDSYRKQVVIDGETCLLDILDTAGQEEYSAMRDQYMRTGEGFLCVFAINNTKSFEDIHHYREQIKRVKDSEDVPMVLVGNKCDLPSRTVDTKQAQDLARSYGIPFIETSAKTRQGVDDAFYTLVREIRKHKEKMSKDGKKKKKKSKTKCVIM
KRAS G12C-BRAF complex, sequence (P62937 whole entry): as the sequence (P62937 whole entry) above

What is called IC50 is the midpoint of a concentration-inhibition curve. As for `CO[C@@H](C)c1ncc(N2CCN(CC(F)(F)F)CC2)cc1-c1c2c3cc(ccc3n1CC(F)(F)F)-c1csc(n1)C[C@H](NC(=O)[C@H](C(C)C)N(C)C(=O)N1CCOCC1)C(=O)N1CCC[C@H](N1)C(=O)OCC(C)(C)C2` (atropisomer, axis not shown; (M)) [Example 6], the IC50 was found to be 5 nM in assay [1]; 20 nM in the assay with AGS cells (KRAS G12D); 2 nM in the assay on SW620 cells (KRAS G12V); 23 nM on KRAS G12C-BRAF complex; 61 nM at KRAS G12V-BRAF complex; 3 nM in assay [2]. The IC50 is 2 nM in assay [3]; 5 nM in assay [4]; 8 nM in assay [5]; 34 nM in assay [6]; 5 nM in assay [7].
